Where “and” joins values, the source holds several entries; their conditions need not be identical. Equal values may be shown once.
Experiments:
Type in all cases: functional
[1] = Antifungal activity against Bipolaris oryzae was measured as mycelial growth at 0.1 mg/mL concentration
[2] = Antifungal activity against Bipolaris oryzae was measured as mycelial growth at 0.5 mg/mL concentration
Curvularia lunata [3] = experiment: Antifungal activity against Curvularia lunata was measured as mycelial growth at 0.1 mg/mL concentration
Curvularia lunata [4] = experiment: Antifungal activity against Curvularia lunata was measured as mycelial growth at 0.5 mg/mL concentration
Fusarium oxysporum [5] = experiment: Antifungal activity against Fusarium oxysporum was measured as mycelial growth at 0.1 mg/mL concentration
[6] = Antibacterial activity against Escherichia coli was measured as area of inhibition zone at 0.1 mg/mL concentration
Enterococcus faecalis [7] = experiment: Antibacterial activity against […] was measured as area of inhibition zone at 0.1 mg/mL concentration
Staphylococcus aureus [8] = experiment: Antibacterial activity against Staphylococcus aureus was measured as area of inhibition zone at 0.1 mg/mL concentration
Pseudomonas aeruginosa [9] = experiment: Antibacterial activity against Pseudomonas aeruginosa was measured as area of inhibition zone at 0.1 mg/mL concentration
Fusarium oxysporum [10] = experiment: Antifungal activity against Fusarium oxysporum was measured as mycelial growth at 0.5 mg/mL concentration
Thanatephorus cucumeris [11] = experiment: Antifungal activity against Rhizoctonia solani was measured as mycelial growth at 0.1 mg/mL concentration
Thanatephorus cucumeris [12] = experiment: Antifungal activity against Rhizoctonia solani was measured as mycelial growth at 0.5 mg/mL concentration
Alternaria alternata [13] = experiment: Antifungal activity against Alternaria alternata was measured as mycelial growth at 0.1 mg/mL concentration
Alternaria alternata [14] = experiment: Antifungal activity against Alternaria alternata was measured as mycelial growth at 0.5 mg/mL concentration
[15] = Antifungal activity against Bipolaris oryzae was determined at 0.1 mg/mL concentration
[16] = Antifungal activity against Bipolaris oryzae was determined at 0.5 mg/mL concentration
Curvularia lunata [17] = experiment: Antifungal activity against Curvularia lunata was determined at 0.1 mg/mL concentration
Curvularia lunata [18] = experiment: Antifungal activity against Curvularia lunata was determined at 0.5 mg/mL concentration
Fusarium oxysporum [19] = experiment: Antifungal activity against Fusarium oxysporum was determined at 0.1 mg/mL concentration
Fusarium oxysporum [20] = experiment: Antifungal activity against Fusarium oxysporum was determined at 0.5 mg/mL concentration
Thanatephorus cucumeris [21] = experiment: Antifungal activity against Rhizoctonia solani was determined at 0.1 mg/mL concentration
Thanatephorus cucumeris [22] = experiment: Antifungal activity against Rhizoctonia solani was determined at 0.5 mg/mL concentration
Escherichia coli [23] = experiment: Antibacterial activity against Escherichia coli was determined at 0.1 mg/mL concentration
Escherichia coli [24] = experiment: Antibacterial activity against Escherichia coli was determined at 0.5 mg/mL concentration
Pseudomonas aeruginosa [25] = experiment: Antibacterial activity against Pseudomonas aeruginosa was determined at 0.1 mg/mL concentration
Enterococcus faecalis [26] = experiment: Antibacterial activity against […] was determined at 0.1 mg/mL concentration
Enterococcus faecalis [27] = experiment: Antibacterial activity against […] was determined at 0.5 mg/mL concentration
Staphylococcus aureus [28] = experiment: Antibacterial activity against Staphylococcus aureus was determined at 0.1 mg/mL concentration
Staphylococcus aureus [29] = experiment: Antibacterial activity against Staphylococcus aureus was determined at 0.5 mg/mL concentration
Pseudomonas aeruginosa [30] = experiment: Antibacterial activity against Pseudomonas aeruginosa was determined at 0.5 mg/mL concentration
Alternaria alternata [31] = experiment: Antifungal activity against Alternaria alternata was determined at 0.1 mg/mL concentration
Alternaria alternata [32] = experiment: Antifungal activity against Alternaria alternata was determined at 0.5 mg/mL concentration

Which results are given for `CCOC(=O)c1cn(-c2ccc([N+](=O)[O-])cc2[N+](=O)[O-])nc1-c1ccccc1`?
Mycelial growth [1]: 5.6 cm; Mycelial growth [2]: 4.4 cm; Mycelial growth (Curvularia lunata [3]): 5.6 cm; Mycelial growth (Curvularia lunata [4]): 3.8 cm; Mycelial growth (Fusarium oxysporum [5]): 5.3 cm; Inhibition Zone [6]: 4.3 cm and 7.2 cm; zone of inhibition at 100 µg/mL ([6]; Escherichia coli): 39 mm; zone of inhibition at 100 µg/mL (Enterococcus faecalis [7]): 74 mm; Inhibition Zone (Staphylococcus aureus [8]): 7.6 cm and 3.6 cm; Inhibition Zone (Pseudomonas aeruginosa [9]): 2.2 cm; zone of inhibition at 100 µg/mL (Pseudomonas aeruginosa [9]; Pseudomonas aeruginosa): 18 mm; Mycelial growth (Fusarium oxysporum [10]): 3 cm; Mycelial growth (Thanatephorus cucumeris [11]): 8 cm; Mycelial growth (Thanatephorus cucumeris [12]): 6.6 cm; Mycelial growth (Alternaria alternata [13]): 5.5 cm; Mycelial growth (Alternaria alternata [14]): 3.8 cm; inhibition at 100 µg/mL [15]: 37.8%; inhibition at 500 µg/mL [16]: 51.1%; inhibition at 100 µg/mL (Curvularia lunata [17]): 37.8%; inhibition at 500 µg/mL (Curvularia lunata [18]): 57.8%; inhibition at 100 µg/mL (Fusarium oxysporum [19]): 41.1%; inhibition at 500 µg/mL (Fusarium oxysporum [20]): 66.7%; inhibition at 100 µg/mL (Thanatephorus cucumeris [21]): 11.1%; inhibition at 500 µg/mL (Thanatephorus cucumeris [22]): 26.6%; inhibition at 100 µg/mL (Escherichia coli [23]): 43.3%; inhibition at 500 µg/mL (Escherichia coli [24]): 80%; inhibition at 100 µg/mL (Pseudomonas aeruginosa [25]): 20%; inhibition at 100 µg/mL (Enterococcus faecalis [26]): 47.8%; inhibition at 500 µg/mL (Enterococcus faecalis [27]): 82.2%; inhibition at 100 µg/mL (Staphylococcus aureus [28]): 40%; inhibition at 500 µg/mL (Staphylococcus aureus [29]): 84.4%; inhibition at 500 µg/mL (Pseudomonas aeruginosa [30]): 24.4%; inhibition at 100 µg/mL (Alternaria alternata [31]): 38.9%; inhibition at 500 µg/mL (Alternaria alternata [32]): 57.8%

From ChEMBL document CHEMBL1137069, “Design, synthesis and anti-microbial activity of 1H-pyrazole carboxylates” (2004)
